According to patent publication US6737383B1, “Herbicidal oxadiazolidines” (priority 1999, dated 2004):

Assays:
velvetleaf = assay: Test B pre/postemergence velvetleaf; type: in vivo, Abutilon theophrasti
How it was run: (§1)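 Herbicidal effect was estimated by eye on a ten-point control scale after plants spent twelve to sixteen days in a greenhouse following soil or foliar treatment. Foliar sprays targeted plants at one to four leaves; all doses were formulated in a non-phytotoxic solvent with surfactant.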

surinam grass = assay: Test B pre/postemergence surinam grass; type: in vivo, Brachiaria decumbens
How it was run: as §1

morningglory = assay: Test B pre/postemergence morningglory; type: in vivo, Ipomoea hederacea
How it was run: as §1

sugar beet = assay: Test B pre/postemergence sugar beet; type: in vivo, Beta vulgaris
How it was run: as §1

wheat = assay: Test B pre/postemergence wheat; type: in vivo, Triticum aestivum
How it was run: as §1

soybean = assay: Test B pre/postemergence soybean; type: in vivo, Glycine max
How it was run: as §1

pigweed = assay: Test B pre/postemergence pigweed; type: in vivo, Amaranthus retroflexus
How it was run: as §1

cocklebur = assay: Test B pre/postemergence cocklebur; type: in vivo, Xanthium strumarium
How it was run: as §1

smallflower flatsedge = assay: Test B flood test smallflower flatsedge; type: in vivo, Cyperus difformis
How it was run: (§2)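 Read-out is a visual response score from 0 (no effect) to 10 (complete control), assigned by comparison with untreated controls. Treatment was applied at the 2-leaf stage, and plants stayed in the greenhouse for twelve to sixteen days before scoring.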

wild oat = assay: Test B pre/postemergence wild oat; type: in vivo, Avena fatua
How it was run: as §1

corn = assay: Test B pre/postemergence corn; type: in vivo, Zea mays
How it was run: as §1

rice = assay: Test B flood test rice; type: in vivo, Oryza sativa
How it was run: as §2

rape = assay: Test B pre/postemergence rape; type: in vivo, Brassica napus
How it was run: as §1

giant foxtail = assay: Test B pre/postemergence giant foxtail; type: in vivo, Setaria faberii
How it was run: as §1

blackgrass = assay: Test B pre/postemergence blackgrass; type: in vivo, Alopecurus myosuroides
How it was run: as §1

bedstraw = assay: Test B pre/postemergence bedstraw; type: in vivo, Galium aparine
How it was run: as §1

[1] = Postemergence, Rate 62 g/ha, scale 0 to 10, 0 is no effect, 10 is complete control
[2] = Postemergence, Rate 250 g/ha, scale 0 to 10, 0 no effect, 10 complete control
[3] = Preemergence, Rate 62 g/ha, scale 0 to 10, 0 is no effect, 10 is complete control
[4] = Preemergence, Rate 125 g/ha, scale 0 to 10 (0 no effect, 10 complete control)
[5] = Preemergence, Rate 250 g/ha, scale of 0 to 10 where 0 is no effect and 10 is complete control
[6] = Preemergence, Rate 500 g/ha, scale 0 (no effect) to 10 (complete control)
[7] = Rate 125 g/ha, Postemergence, scale 0 to 10, 0 no effect, 10 complete control
[8] = Rate 500 g/ha, Postemergence, 0 to 10 scale (0 no effect, 10 complete control)
[9] = Rate 125 g/ha, Postemergence section (flood test species), scale 0 to 10, 0 no effect, 10 complete control
[10] = flood test, listed under Postemergence, Rate 250 g/ha, scale 0 to 10, 0 no effect, 10 complete control

Cc1ccccc1-n1c(=O)on(C(=O)N(C2=CCOCC2)C(C)C)c1=O [Compound 10]
9: Plant response rating, Giant foxtail (giant foxtail; [5]) | Giant foxtail plant response rating (giant foxtail; [6]) | Blackgrass plant response rating (blackgrass; [6])
1: Cocklebur plant response rating (cocklebur; [2]) | Plant response rating, Blackgrass (blackgrass; [3])
2: Morningglory plant response rating (morningglory; [2]) | Morningglory plant response rating (morningglory; [7]) | Corn plant response rating (corn; [8]) | Giant foxtail plant response rating (giant foxtail; [1])
8: Plant response rating, B. signalgrass (surinam grass; [5]) | B. signalgrass plant response rating (surinam grass; [6]) | Giant foxtail plant response rating (giant foxtail; [2]) | Giant foxtail plant response rating (giant foxtail; [8]) | Plant response rating, Blackgrass (blackgrass; [5])
6: Plant response rating, Giant foxtail (giant foxtail; [4])
3: Morningglory plant response rating (morningglory; [8]) | Soybean plant response rating (soybean; [1]) | Soybean plant response rating (soybean; [2]) | Soybean plant response rating (soybean; [7]) | Cocklebur plant response rating (cocklebur; [8]) | Plant response rating, Giant foxtail (giant foxtail; [3])
5: Plant response rating, B. signalgrass (surinam grass; [4]) | Giant foxtail plant response rating (giant foxtail; [7])
0: Velvetleaf plant response rating (velvetleaf; [1]) | Velvetleaf plant response rating (velvetleaf; [2]) | Plant response rating, Velvetleaf (velvetleaf; [3]) | Plant response rating, Velvetleaf (velvetleaf; [4]) | Plant response rating, Velvetleaf (velvetleaf; [5]) | Velvetleaf plant response rating (velvetleaf; [6]) | Velvetleaf plant response rating (velvetleaf; [7]) | B. signalgrass plant response rating (surinam grass; [1]) | Plant response rating, B. signalgrass (surinam grass; [3]) | B. signalgrass plant response rating (surinam grass; [7]) | Morningglory plant response rating (morningglory; [1]) | Plant response rating, Morningglory (morningglory; [3]) | Plant response rating, Morningglory (morningglory; [4]) | Plant response rating, Morningglory (morningglory; [5]) | Morningglory plant response rating (morningglory; [6]) | Sugarbeets plant response rating (sugar beet; [1]) | Sugarbeets plant response rating (sugar beet; [2]) | Plant response rating, Sugarbeets (sugar beet; [3]) | Plant response rating, Sugarbeets (sugar beet; [4]) | Plant response rating, Sugarbeets (sugar beet; [5]) | Sugarbeets plant response rating (sugar beet; [6]) | Sugarbeets plant response rating (sugar beet; [7]) | Wheat plant response rating (wheat; [1]) | Wheat plant response rating (wheat; [2]) | Plant response rating, Wheat (wheat; [3]) | Plant response rating, Wheat (wheat; [4]) | Plant response rating, Wheat (wheat; [5]) | Wheat plant response rating (wheat; [6]) | Wheat plant response rating (wheat; [7]) | Plant response rating, Soybean (soybean; [3]) | Plant response rating, Soybean (soybean; [4]) | Plant response rating, Soybean (soybean; [5]) | Soybean plant response rating (soybean; [6]) | Redroot pigweed plant response rating (pigweed; [1]) | Redroot pigweed plant response rating (pigweed; [2]) | Plant response rating, Redroot pigweed (pigweed; [3]) | Plant response rating, Redroot pigweed (pigweed; [4]) | Plant response rating, Redroot pigweed (pigweed; [5]) | Redroot pigweed plant response rating (pigweed; [6]) | Redroot pigweed plant response rating (pigweed; [7]) | Redroot pigweed plant response rating (pigweed; [8]) | Cocklebur plant response rating (cocklebur; [1]) | Plant response rating, Cocklebur (cocklebur; [3]) | Plant response rating, Cocklebur (cocklebur; [4]) | Cocklebur plant response rating (cocklebur; [6]) | Cocklebur plant response rating (cocklebur; [7]) | S. Flatsedge plant response rating (smallflower flatsedge; [1]) | S. Flatsedge plant response rating (smallflower flatsedge; [9]) | S. Flatsedge plant response rating (smallflower flatsedge; [10]) | Wild oats plant response rating (wild oat; [1]) | Wild oats plant response rating (wild oat; [2]) | Plant response rating, Wild oats (wild oat; [4]) | Plant response rating, Wild oats (wild oat; [5]) | Wild oats plant response rating (wild oat; [6]) | Wild oats plant response rating (wild oat; [7]) | Corn plant response rating (corn; [1]) | Corn plant response rating (corn; [2]) | Plant response rating, Corn (corn; [3]) | Plant response rating, Corn (corn; [4]) | Plant response rating, Corn (corn; [5]) | Corn plant response rating (corn; [7]) | Rice plant response rating (rice; [1]) | Rice plant response rating (rice; [9]) | Rice plant response rating (rice; Rate 500 g/ha, Postemergence section of Table B, 0 to 10 scale (0 no effect, 10 complete control)) | Rice plant response rating (rice; [10]) | Rape plant response rating (rape; [1]) | Rape plant response rating (rape; [2]) | Plant response rating, Rape (rape; [3]) | Plant response rating, Rape (rape; [4]) | Plant response rating, Rape (rape; [5]) | Rape plant response rating (rape; [6]) | Rape plant response rating (rape; [7]) | Rape plant response rating (rape; [8]) | Blackgrass plant response rating (blackgrass; [1]) | Blackgrass plant response rating (blackgrass; [7]) | Bedstraw plant response rating (bedstraw; [1]) | Bedstraw plant response rating (bedstraw; [2]) | Plant response rating, Bedstraw (bedstraw; [3]) | Plant response rating, Bedstraw (bedstraw; [4]) | Plant response rating, Bedstraw (bedstraw; [5]) | Bedstraw plant response rating (bedstraw; [6]) | Bedstraw plant response rating (bedstraw; [7]) | Bedstraw plant response rating (bedstraw; [8])
4: B. signalgrass plant response rating (surinam grass; [2]) | B. signalgrass plant response rating (surinam grass; [8]) | Corn plant response rating (corn; [6]) | Blackgrass plant response rating (blackgrass; [2]) | Plant response rating, Blackgrass (blackgrass; [4])
7: Blackgrass plant response rating (blackgrass; [8])
